Source: ChEMBL document CHEMBL6182904, “Discovery of a novel molecular glue degrader targeting GSPT1/2 with a non-IMiD-based CRBN binder” (Eur J Med Chem, 2025)
Active and inactive are the calls of the source. No cut-off for these calls is given here.

What was measured:
[1] = target: Protein cereblon (Homo sapiens) (UniProt Q96SW2); experiment: Binding affinity to CRBN (unknown origin) at 10 uM relative to control
[2] = target: T1, Protein cereblon/Eukaryotic peptide chain release factor GTP-binding subunit ERF3A (Homo sapiens, UniProt Q96SW2+P15170); experiment: Molecular glue activity at human full length wild type CRBN/Hibit tagged GSPT1 in human Jurkat cells assessed as induction of GSPT1 degradation; assay type: cell-based
Target sequence in this assay (Q96SW2 whole entry): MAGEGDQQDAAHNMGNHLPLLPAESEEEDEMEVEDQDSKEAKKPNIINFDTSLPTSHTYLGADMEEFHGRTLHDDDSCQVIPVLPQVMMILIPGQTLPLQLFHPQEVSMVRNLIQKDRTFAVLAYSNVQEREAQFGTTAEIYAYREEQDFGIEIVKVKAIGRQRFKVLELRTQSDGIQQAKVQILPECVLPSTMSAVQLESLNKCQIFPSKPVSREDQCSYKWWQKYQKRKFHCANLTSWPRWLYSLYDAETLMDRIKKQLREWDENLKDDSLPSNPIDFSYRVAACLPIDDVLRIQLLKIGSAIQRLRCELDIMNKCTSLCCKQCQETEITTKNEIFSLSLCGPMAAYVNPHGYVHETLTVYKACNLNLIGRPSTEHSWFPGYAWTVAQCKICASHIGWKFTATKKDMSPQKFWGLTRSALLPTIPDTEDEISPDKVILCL
Target sequence in this assay (P15170 whole entry): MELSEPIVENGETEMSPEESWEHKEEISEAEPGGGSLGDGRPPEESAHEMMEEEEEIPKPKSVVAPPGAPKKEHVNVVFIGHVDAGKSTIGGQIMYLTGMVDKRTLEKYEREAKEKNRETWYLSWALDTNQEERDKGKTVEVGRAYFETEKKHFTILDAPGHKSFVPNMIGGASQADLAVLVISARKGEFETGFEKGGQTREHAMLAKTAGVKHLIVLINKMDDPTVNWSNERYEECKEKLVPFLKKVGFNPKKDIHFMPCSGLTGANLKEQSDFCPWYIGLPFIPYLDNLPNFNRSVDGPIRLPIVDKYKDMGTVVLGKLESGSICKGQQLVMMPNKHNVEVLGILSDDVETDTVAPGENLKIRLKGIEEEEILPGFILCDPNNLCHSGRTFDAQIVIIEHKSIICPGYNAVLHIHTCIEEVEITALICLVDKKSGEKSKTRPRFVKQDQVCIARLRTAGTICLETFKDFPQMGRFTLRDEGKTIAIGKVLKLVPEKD

[3] = target: Protein cereblon/Eukaryotic peptide chain release factor GTP-binding subunit ERF3A (Homo sapiens, UniProt P15170+Q96SW2); experiment: Molecular glue activity at LgBiT tagged CRBN/SmBiT tagged GSPT1 (unknown origin) transfected with HEK293T cells assessed as ternary complex formation incubated for 1 hr by Nano-Glo luminescence analysis; assay type: cell-based
[4] = Cytotoxicity against HEK293T cells assessed as cell growth inhibition measured after 72 hrs by CellTiter-Glo assay; assay type: toxicity, cell-based, HEK-293T; conditions: human
[5] = Cytotoxicity against HEK293T cells assessed as cell growth inhibition measured after 72 hrs in presence of MLN4924 by CellTiter-Glo assay; assay type: toxicity, cell-based, HEK-293T; conditions: human
Jurkat [6] = experiment: Cytotoxicity against human Jurkat cells assessed as cell growth inhibition measured after 72 hrs by CellTiter-Glo assay; assay type: functional
[7] = Cytotoxicity against human Jurkat cells assessed as cell growth inhibition measured after 72 hrs in presence of MLN4924 by CellTiter-Glo assay; assay type: toxicity, cell-based
MCF7 = experiment: Selectivity ratio of GI50 for cytotoxicity against human MCF7 cells assessed as cell growth inhibition measured after 72 hrs in presence of MLN4924 to GI50 for cytotoxicity against human MCF7 cells assessed as cell growth inhibition measured after 72 hrs; assay type: functional
[8] = Selectivity ratio of GI50 for cytotoxicity against human HCT-116 cells assessed as cell growth inhibition measured after 72 hrs in presence of MLN4924 to GI50 for cytotoxicity against human HCT-116 cells assessed as cell growth inhibition measured after 72 hrs; assay type: functional
[9] = Selectivity ratio of GI50 for cytotoxicity against human MIA PaCa-2 cells assessed as cell growth inhibition measured after 72 hrs in presence of MLN4924 to GI50 for cytotoxicity against human MIA PaCa-2 cells assessed as cell growth inhibition measured after 72 hrs; assay type: functional
[10] = target: T1, Protein cereblon/Eukaryotic peptide chain release factor GTP-binding subunit ERF3A; experiment: Molecular glue activity at full length human wild type CRBN/HiBit tagged GSPT1 in HEK293T cells assessed as induction of GSPT1 degradation at 1 uM incubated for 12 hrs by Western blot analysis; assay type: cell-based
Target sequence in this assay (P15170 whole entry, looked up): as the sequence (P15170 whole entry) above
Target sequence in this assay (Q96SW2 whole entry, looked up): as the sequence (Q96SW2 whole entry) above

[11] = target: T1, Protein cereblon/Eukaryotic peptide chain release factor GTP-binding subunit ERF3A; experiment: Molecular glue activity at full length human wild type CRBN/HiBit tagged GSPT1 in HEK293T cells assessed as induction of GSPT1 degradation at 0.1 to 10 uM incubated for 6 hrs by Western blot analysis; assay type: cell-based; conditions: dose 0.1-10 µM
Target sequence in this assay (P15170 whole entry, looked up): as the sequence (P15170 whole entry) above
Target sequence in this assay (Q96SW2 whole entry, looked up): as the sequence (Q96SW2 whole entry) above

[12] = target: T1, Protein cereblon/Eukaryotic peptide chain release factor GTP-binding subunit ERF3A; experiment: Molecular glue activity at full length human wild type CRBN/HiBit tagged GSPT1 in human KG-1 cells assessed as induction of GSPT1 degradation at 0.1 to 10 uM incubated for 6 hrs by Western blot analysis; assay type: cell-based; conditions: dose 0.1-10 µM
Target sequence in this assay (P15170 whole entry, looked up): as the sequence (P15170 whole entry) above
Target sequence in this assay (Q96SW2 whole entry, looked up): as the sequence (Q96SW2 whole entry) above

[13] = target: T1, Protein cereblon/Eukaryotic peptide chain release factor GTP-binding subunit ERF3A; experiment: Molecular glue activity at full length wild type human CRBN/HiBit tagged GSPT1 in human Jurkat cells assessed as induction of GSPT1 degradation at 3 uM incubated for 6 hrs by Western blot analysis; assay type: cell-based
Target sequence in this assay (P15170 whole entry, looked up): as the sequence (P15170 whole entry) above
Target sequence in this assay (Q96SW2 whole entry, looked up): as the sequence (Q96SW2 whole entry) above

[14] = target: T2, Protein cereblon/Eukaryotic peptide chain release factor GTP-binding subunit ERF3B (Homo sapiens, UniProt Q96SW2+Q8IYD1); experiment: Molecular glue activity at full length human wild type CRBN/GSPT2 in human Jurkat cells assessed as induction of GSPT2 degradation at 3 uM incubated for 6 hrs by Western blot analysis; assay type: cell-based
Target sequence in this assay (Q8IYD1 whole entry, looked up): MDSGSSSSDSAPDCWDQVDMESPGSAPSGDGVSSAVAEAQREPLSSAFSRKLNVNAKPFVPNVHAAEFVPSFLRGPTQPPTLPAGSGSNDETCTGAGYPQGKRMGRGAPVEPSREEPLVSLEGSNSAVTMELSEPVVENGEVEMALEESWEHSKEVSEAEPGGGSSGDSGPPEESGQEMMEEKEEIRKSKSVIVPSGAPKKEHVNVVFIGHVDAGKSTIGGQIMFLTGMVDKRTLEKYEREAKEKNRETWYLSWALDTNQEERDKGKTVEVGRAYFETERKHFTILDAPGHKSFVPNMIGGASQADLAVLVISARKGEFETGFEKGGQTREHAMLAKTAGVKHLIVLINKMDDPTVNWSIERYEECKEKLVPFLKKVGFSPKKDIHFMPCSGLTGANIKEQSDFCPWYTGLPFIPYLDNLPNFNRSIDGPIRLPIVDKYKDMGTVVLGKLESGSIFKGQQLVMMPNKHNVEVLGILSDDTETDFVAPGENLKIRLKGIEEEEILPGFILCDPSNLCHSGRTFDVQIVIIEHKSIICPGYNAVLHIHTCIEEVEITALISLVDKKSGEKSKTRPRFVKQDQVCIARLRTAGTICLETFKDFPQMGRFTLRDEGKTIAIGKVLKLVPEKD
Target sequence in this assay (Q96SW2 whole entry, looked up): as the sequence (Q96SW2 whole entry) above

[15] = target: T1, Protein cereblon/Eukaryotic peptide chain release factor GTP-binding subunit ERF3A; experiment: Molecular glue activity at full length human wild type CRBN/HiBit tagged GSPT1 in human Jurkat cells assessed as induction of GSPT1 degradation incubated for 6 hrs by Western blot analysis; assay type: cell-based
Target sequence in this assay (Q96SW2 whole entry): as above
Target sequence in this assay (P15170 whole entry): as the sequence (P15170 whole entry) above

[16] = target: T2, Protein cereblon/Eukaryotic peptide chain release factor GTP-binding subunit ERF3B; experiment: Molecular glue activity at full length human wild type CRBN/GSPT2 in human Jurkat cells assessed as induction of GSPT2 degradation incubated for 6 hrs by Western blot analysis; assay type: cell-based
[17] = target: T1, Protein cereblon/Eukaryotic peptide chain release factor GTP-binding subunit ERF3A; experiment: Molecular glue activity at full length wild type human CRBN/HiBit tagged GSPT1 in human Jurkat cells harbouring cullin4 knockdown assessed as induction of GSPT1 degradation at 1 uM incubated for 6 hrs by Western blot analysis; assay type: cell-based
Target sequence in this assay (P15170 whole entry, looked up): as the sequence (P15170 whole entry) above
Target sequence in this assay (Q96SW2 whole entry, looked up): as the sequence (Q96SW2 whole entry) above

Jurkat [18] = experiment: Cytotoxicity against human Jurkat cells harbouring cullin4 knockdown assessed as cell growth inhibition measured after 72 hrs by CellTiter-Glo assay; assay type: functional
[19] = target: T1, Protein cereblon/Eukaryotic peptide chain release factor GTP-binding subunit ERF3A; experiment: Molecular glue activity at full length human wild type CRBN/HiBit tagged GSPT1 in human Jurkat cells assessed as induction of GSPT1 degradation at 0.1 to 10 uM incubated for 6 hrs in presence of bortezomib by Western blot analysis; assay type: cell-based; conditions: dose 0.1-10 µM
Target sequence in this assay (P15170 whole entry, looked up): as the sequence (P15170 whole entry) above
Target sequence in this assay (Q96SW2 whole entry, looked up): as the sequence (Q96SW2 whole entry) above

[20] = target: T2, Protein cereblon/Eukaryotic peptide chain release factor GTP-binding subunit ERF3B; experiment: Molecular glue activity at full length human wild type CRBN/HiBit tagged GSPT2 in human Jurkat cells assessed as induction of GSPT2 degradation at 0.1 to 10 uM incubated for 6 hrs in presence of bortezomib by Western blot analysis; assay type: cell-based; conditions: dose 0.1-10 µM
Target sequence in this assay (Q8IYD1 whole entry, looked up): as the sequence (Q8IYD1 whole entry, looked up) above
Target sequence in this assay (Q96SW2 whole entry, looked up): as the sequence (Q96SW2 whole entry) above

[21] = target: Protein cereblon (Homo sapiens) (UniProt Q96SW2); experiment: Binding affinity to CRBN in HEK293T cells harbouring DDB1/Nanoluc assessed as decrease in BRET ratio incubated for 2 hrs NanoBRET engagement assay; assay type: cell-based; conditions: dose 1-30 µM
[22] = target: T1, Protein cereblon/Eukaryotic peptide chain release factor GTP-binding subunit ERF3A; experiment: Molecular glue activity at full length human wild type CRBN/HiBit tagged GSPT1 in HEK293T cells assessed as induction of GSPT1 degradation incubated for 6 hrs by Nano-Glo luminescence assay; assay type: cell-based
Target sequence in this assay (Q96SW2 whole entry): as above
Target sequence in this assay (P15170 whole entry): as the sequence (P15170 whole entry) above

[23] = target: T1, Protein cereblon/Eukaryotic peptide chain release factor GTP-binding subunit ERF3A; experiment: Molecular glue activity at full length human wild type CRBN/HiBit tagged GSPT1 in HEK293T cells assessed as induction of GSPT1 degradation incubated for 6 hrs in presence of pomalidomide by Nano-Glo luminescence assay; assay type: cell-based
Target sequence in this assay (Q96SW2 whole entry): as the sequence (Q96SW2 whole entry) above
Target sequence in this assay (P15170 whole entry): as the sequence (P15170 whole entry) above

[24] = target: T1, Protein cereblon/Eukaryotic peptide chain release factor GTP-binding subunit ERF3A; experiment: Molecular glue activity at full length human wild type CRBN/HiBit tagged GSPT1 in HEK293T cells assessed as induction of GSPT1 degradation at 10 uM incubated for 6 hrs by Nano-Glo luminescence assay relative to control; assay type: cell-based
[25] = target: T1, Protein cereblon/Eukaryotic peptide chain release factor GTP-binding subunit ERF3A; experiment: Molecular glue activity at full length human wild type CRBN/HiBit tagged GSPT1 in HEK293T cells assessed as induction of GSPT1 degradation at 10 uM incubated for 6 hrs in presence of pomalidomide by Nano-Glo luminescence assay relative to control; assay type: cell-based
[26] = target: Protein cereblon/Eukaryotic peptide chain release factor GTP-binding subunit ERF3A (Mus musculus) (UniProt Q8C7D2+Q8R050); experiment: Molecular glue activity at Wild type CRBN/GSPT1 in mouse MEF cells harbouring CRBN knockout assessed as induction of GSPT1 degradation at 0.1 to 10 uM incubated for 24 hrs by Western blot analysis; assay type: cell-based; conditions: dose 0.1-10 µM
MEF = experiment: Molecular glue activity at CRBN W386A mutant/GSPT1 in mouse MEF cells harbouring CRBN knockout assessed as induction of GSPT1 degradation at 0.1 to 10 uM incubated for 24 hrs by Western blot analysis; assay type: cell-based; conditions: dose 0.1-10 µM
[27] = target: T1, Protein cereblon/Eukaryotic peptide chain release factor GTP-binding subunit ERF3A; experiment: Molecular glue activity at full length wild type CRBN/HiBit tagged GSPT1 in human Jurkat cells harbouring wildtype CRBN assessed as induction of GSPT1 degradation at 0.1 to 10 uM incubated for 6 hrs by Western blot analysis; assay type: cell-based; conditions: dose 0.1-10 µM
[28] = target: T1, Protein cereblon/Eukaryotic peptide chain release factor GTP-binding subunit ERF3A; experiment: Molecular glue activity at full length wild type CRBN/HiBit tagged GSPT1 in human Jurkat cells harbouring CRBN knockout assessed as induction of GSPT1 degradation at 0.1 to 10 uM incubated for 6 hrs by Western blot analysis; assay type: cell-based; conditions: dose 0.1-10 µM
[29] = target: T2, Protein cereblon/Eukaryotic peptide chain release factor GTP-binding subunit ERF3B; experiment: Molecular glue activity at full length wild type CRBN/HiBit tagged GSPT2 in human Jurkat cells harbouring wildtype CRBN assessed as induction of GSPT2 degradation at 0.1 to 10 uM incubated for 6 hrs by Western blot analysis; assay type: cell-based; conditions: dose 0.1-10 µM
Target sequence in this assay (Q8IYD1 whole entry, looked up): as the sequence (Q8IYD1 whole entry, looked up) above
Target sequence in this assay (Q96SW2 whole entry, looked up): as the sequence (Q96SW2 whole entry) above

[30] = target: T2, Protein cereblon/Eukaryotic peptide chain release factor GTP-binding subunit ERF3B; experiment: Molecular glue activity at full length wild type CRBN/HiBit tagged GSPT2 in human Jurkat cells harbouring CRBN knockout assessed as induction of GSPT2 degradation at 0.1 to 10 uM incubated for 6 hrs by Western blot analysis; assay type: cell-based; conditions: dose 0.1-10 µM
Target sequence in this assay (Q8IYD1 whole entry, looked up): as the sequence (Q8IYD1 whole entry, looked up) above
Target sequence in this assay (Q96SW2 whole entry, looked up): as the sequence (Q96SW2 whole entry) above

[31] = target: T1, Protein cereblon/Eukaryotic peptide chain release factor GTP-binding subunit ERF3A; experiment: Molecular glue activity at human full length wildtype CRBN/HiBiT tagged GSPT1 in human MIA PaCa-2 cells transfected with CRBN-TurboID-V5 assessed as ternary complex formation at 1 uM preincubated for 4 hrs followed by bortezomib addition and measured after 2 hrs by TurboID analysis; assay type: cell-based; conditions: time 6.0 hrs
[32] = target: T2, Protein cereblon/Eukaryotic peptide chain release factor GTP-binding subunit ERF3B; experiment: Molecular glue activity at human full length wildtype CRBN/HiBiT tagged GSPT2 in human MIA PaCa-2 cells transfected with CRBN-TurboID-V5 assessed as ternary complex formation at 1 uM preincubated for 4 hrs followed by bortezomib addition and measured after 2 hrs by TurboID analysis; assay type: cell-based; conditions: time 6.0 hrs
Target sequence in this assay (Q8IYD1 whole entry, looked up): as the sequence (Q8IYD1 whole entry, looked up) above
Target sequence in this assay (Q96SW2 whole entry, looked up): as the sequence (Q96SW2 whole entry) above

Protein cereblon (Homo sapiens), sequence (Q96SW2 whole entry): as above

COC(=O)c1nc(NC(=O)Cn2cnccc2=O)sc1CCc1ccccc1
Activity [1]: 13.8%
DC50 [2]: 4 µM

COC(=O)c1nc(NC(=O)Cn2cnc(C)cc2=O)sc1CCc1ccccc1
Activity [1]: inactive
DC50 [2]: > 10 µM

COC(=O)c1nc(NC(=O)Cn2cnc(C)c(C)c2=O)sc1CCc1ccccc1
EC50 [3]: 11.4 µM
GI50 at 72 h [4]: 0.8 µM
GI50 at 72 h [5]: 18.4 µM
GI50 (Jurkat [6]): 0.5 µM
GI50 at 72 h [7]: 1.4 µM
RatioGI50 (MCF7): 3
RatioGI50 [8]: 3
RatioGI50 [9]: 3
Activity [10]: Active
Activity [11]: Active
Activity [12]: Active
Activity [13]: Active
Activity [14]: Active
DC50 [15]: 0.127 µM
DC50 [16]: 0.0422 µM
Activity [17]: inactive
GI50 (Jurkat [18]): 3.2 µM
Activity [19]: inactive
Activity [20]: inactive
Activity [21]: Dose-dependent-effect
DC50 [22]: 0.2 µM
DC50 [23]: 45 µM
Emax [24]: 98.2%
Emax [25]: 31.7%
Activity [26]: Active
Activity (MEF): inactive
Activity [1]: 47.6%
DC50 [2]: 1.2 µM
Activity [27]: Active
Activity [28]: inactive
Activity [29]: Active
Activity [30]: inactive
Activity [31]: inactive
Activity [32]: inactive

CNC(=O)c1nc(NC(=O)Cn2cnc(C)c(C)c2=O)sc1CCc1ccccc1
Activity [1]: -9%
DC50 [2]: > 10 µM

COC(=O)c1nc(NC(=O)Cn2cncc(C)c2=O)sc1CCc1ccccc1
Activity [1]: inactive
DC50 [2]: > 10 µM

COC(=O)c1nc(NC(=O)Cn2cnc(C)c(C)c2=O)sc1Cc1ccccc1
Activity [1]: -5.6%
DC50 [2]: > 10 µM

COC(=O)c1nc(NC(=O)Cn2cnc(C)c(C)c2=O)sc1CCc1ccc(Cl)cc1
Activity [1]: inactive
DC50 [2]: > 10 µM

COC(=O)c1nc(NC(=O)Cn2cnc(C)c(C)c2=O)sc1CCc1cccc(Cl)c1
Activity [1]: inactive
DC50 [2]: > 10 µM

Cc1ccc(NC(=O)NCc2ccc3c(c2)CN(C2CCC(=O)NC2=O)C3=O)cc1Cl (stereo unspecified)
EC50 [3]: 0.1 µM

COC(=O)c1nc(NC(=O)Cn2cnc3c(c2=O)CCC3)sc1CCc1ccccc1
Activity [1]: -14.4%
DC50 [2]: > 10 µM
